From patent US20120088730A1, “USE OF ANGIOTENSIN CONVERTING ENZYME (ACE) DOMAIN SPECIFIC INHIBITORS TO INHIBIT OR ENHANCE CYTOKINE PRODUCTION AND ALTER IMMUNE RESPONSE” (CEDARS-SINAI MEDICAL CENTER, priority 2009, published 2012)
Values belong to the molecule of their own block, whether it stands above or below them. Ends that are not written are not given here.

Tests used:
[1] = cited from earlier work
ACE C-domain = biological target: T1, ACE C-domain (Homo sapiens, UniProt P12821); settings: lower for C-domain; cited from earlier work
T1 construct: with a dissociation constant more than 3 orders of magnitude lower for the ACE C-domain than the N-domain

cytokine expression = cytokine expression with ACE inhibitor, ACE7 (N-terminus KO) vs wild type (FIG. 11); format: cell-based, mouse; settings: ACE7 (N-terminus KO) and wild type
Method: (§1) To obtain large numbers of macrophages, N-KO, C-KO and WT mice were injected intraperitoneally with thioglycolate. After four days, cells were collected, washed and counted. Aliquots of 1×10^6 cells were adhered in 24 well plates. After 2 hrs, non-adherent cells were removed and the plates were visually evaluated to verify that wells contained nearly identical numbers of adherent cells. Media containing 1 ug/ml of LPS (a model activator of macrophages) was then added. After 24 hrs, supernatants were collected and the concentrations of TNF-α and IL-12p40 (one of the 2 proteins comprising IL-12) were determined by ELISA (eBioscience). However, there was a marked difference in cytokine expression profile; macrophages derived from N-KO mice producing far more TNF- a and IL-12p40 than either C-KO or WT mice (p values for TNF-α: N-KO vs. C-KO or WT, p<0.001; p values for IL12p40: N-KO vs. C-KO or WT, p<0.02). Further, there was a clear trend of macrophages from C-KO mice producing less cytokines than wild-type cells (TNF- a: C-KO vs. WT, p<0.07; IL12p40: C-KO vs. WT, p<0.02). Thus, in the absence of ACE N-terminal catalytic activity, TNF-α and IL-12 cytokine expression was increased. In the absence of C-terminal catalytic activity, there is a strong reduction of production of these cytokines. […]

TNF = TNF with AT1R inhibitor, ACE7 (N-terminus KO) vs wild type (FIG. 12); format: cell-based, mouse; settings: ACE7 (N-terminus KO) and wild type
Method: FIG. 12 depicts, in accordance with an embodiment of the present invention, AT1R inhibitor losartan can lower TNF, but cannot eliminate the difference between ACE7 (N-terminus KO) and wild type.
as §1, with “increased.” for “increased. In the absence of C-terminal catalytic activity, there is a strong reduction of production of these cytokines.”

[2] = biological target: AcSDAcKP (synthetic ACE substrate); assay: cell-based or functional assay
[3] = biological target: Hip-His-Leu (HHL) (synthetic ACE substrate); assay: cell-based or functional assay
[4] = system: angiotensin II-induced hypertension; settings: secondary to angiotensin II-induced hypertension; cited from earlier work
cardiac fibroblasts = settings: cited from earlier work
macrophages = settings: cited from earlier work
Smad2 = settings: cited from earlier work
[5] = system: 2-kidney, 1-clip hypertensive rats; settings: osmotic mini-pump; cited from earlier work
[6] = system: aldosterone-salt hypertension; settings: cited from earlier work

T1 sequence (P12821 643-1222 limits assumed): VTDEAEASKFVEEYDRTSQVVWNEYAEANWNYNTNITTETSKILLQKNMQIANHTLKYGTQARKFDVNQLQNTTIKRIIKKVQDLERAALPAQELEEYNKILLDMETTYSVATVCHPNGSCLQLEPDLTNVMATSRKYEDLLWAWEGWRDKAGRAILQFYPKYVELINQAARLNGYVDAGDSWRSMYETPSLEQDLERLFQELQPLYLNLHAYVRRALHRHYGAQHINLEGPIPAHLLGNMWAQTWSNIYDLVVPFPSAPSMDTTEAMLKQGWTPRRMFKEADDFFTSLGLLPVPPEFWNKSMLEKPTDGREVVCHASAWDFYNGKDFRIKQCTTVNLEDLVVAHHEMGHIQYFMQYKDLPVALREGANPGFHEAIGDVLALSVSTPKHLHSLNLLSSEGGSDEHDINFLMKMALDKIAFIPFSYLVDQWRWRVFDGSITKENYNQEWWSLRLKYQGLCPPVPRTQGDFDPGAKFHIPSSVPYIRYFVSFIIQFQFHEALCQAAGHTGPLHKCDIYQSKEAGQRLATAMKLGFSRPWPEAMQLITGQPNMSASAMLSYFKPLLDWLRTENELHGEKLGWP

Molecule: O=C(NC(Cc1ccccc1)P(=O)(O)C1CCCC1C(=O)NC(Cc1c[nH]c2ccccc12)C(=O)O)OCc1ccccc1 (centres unmarked) [RXPA 380]
effectiveness in mice ([1]; mice): effective
stability in vivo ([1]; mouse, in vivo): stable
dissociation constant for the ACE C-domain relative to the N-domain (ACE C-domain): more than 3 orders of magnitude

Molecule: NCCCC[C@H](N[C@@H](CCc1ccccc1)C(=O)O)C(=O)N1CCC[C@H]1C(=O)O [lisinopril]
cytokine expression (cytokine expression): can lower cytokine expression

Molecule: CCCCc1nc(Cl)c(CO)n1Cc1ccc(-c2ccccc2-c2nn[nH]n2)cc1 [losartan]
TNF (TNF): can lower TNF

catalytic activity of plasma (cleavage efficiency against wild-type mice) (% of wild-type efficiency) [2]: 3
Molecule: ACE of ACE 7/7 (N-KO) mice: mouse angiotensin converting enzyme with the N-terminal catalytic site inactivated (HEMGH motif converted to KEMGK) (from UniProt P09470 35-1237)

catalytic activity of plasma (hydrolysis efficiency against wild-type mice) (% of wild-type efficiency) [3]: 18
Molecule: ACE of ACE 13/13 (C-KO) mice: mouse angiotensin converting enzyme with the C-terminal catalytic site inactivated (histidines of HEMGH mutated to lysines) (from UniProt P09470 35-1237)

Molecule: Acetyl-SerAspLysPro (Ac-SDKP) [AcSDKP, tetrapeptide cleaved from thymosin-β4 by prolyl oligopeptidase]
aortic fibrosis [4]: reduced aortic fibrosis
growth of cardiac fibroblasts (cardiac fibroblasts): inhibits the growth of cardiac fibroblasts
macrophage production of TNF (macrophages): reducing macrophage production of TNF
TGF-β1 stimulated phosphorylation of Smad2 (Smad2): inhibits
blood pressure [5]: no effect on blood pressure
development of fibrosis in the heart [5]: prevented the development of fibrosis in the heart
collagen deposition and cell proliferation in the heart and kidney [6]: prevented increased collagen deposition and cell proliferation
